Source: patent US11739078B2, “Methods of inhibiting kinases” (INSILICO MEDICINE IP LIMITED, priority 2019, dated 2023)
Read-outs that look alike come from different tables or passages of the source.

Assays:
TNIK = TNIK (Homo sapiens (Human), UniProt Q9UKE5); assay: TNIK enzymatic assay (radiometric kinase inhibition); type: biochemical
Experimental: The compounds were studied for function as TNIK inhibitors to generate the data of Table 1. […] (specific activity and concentration as required). The reaction is initiated by the addition of the Mg/ATP mix. After incubation for 40 minutes at room temperature, the reaction is stopped by the addition of phosphoric acid to a concentration of 0.5%.

MAP4K4 (h) = MAP4K4 (h) (Homo sapiens (Human), UniProt O95819); assay: MAP4K4 in vitro kinase assay (radiometric); type: biochemical; details: read-out: MAP4K4_IC50
Chain of MAP4K4 (h) (O95819 whole entry): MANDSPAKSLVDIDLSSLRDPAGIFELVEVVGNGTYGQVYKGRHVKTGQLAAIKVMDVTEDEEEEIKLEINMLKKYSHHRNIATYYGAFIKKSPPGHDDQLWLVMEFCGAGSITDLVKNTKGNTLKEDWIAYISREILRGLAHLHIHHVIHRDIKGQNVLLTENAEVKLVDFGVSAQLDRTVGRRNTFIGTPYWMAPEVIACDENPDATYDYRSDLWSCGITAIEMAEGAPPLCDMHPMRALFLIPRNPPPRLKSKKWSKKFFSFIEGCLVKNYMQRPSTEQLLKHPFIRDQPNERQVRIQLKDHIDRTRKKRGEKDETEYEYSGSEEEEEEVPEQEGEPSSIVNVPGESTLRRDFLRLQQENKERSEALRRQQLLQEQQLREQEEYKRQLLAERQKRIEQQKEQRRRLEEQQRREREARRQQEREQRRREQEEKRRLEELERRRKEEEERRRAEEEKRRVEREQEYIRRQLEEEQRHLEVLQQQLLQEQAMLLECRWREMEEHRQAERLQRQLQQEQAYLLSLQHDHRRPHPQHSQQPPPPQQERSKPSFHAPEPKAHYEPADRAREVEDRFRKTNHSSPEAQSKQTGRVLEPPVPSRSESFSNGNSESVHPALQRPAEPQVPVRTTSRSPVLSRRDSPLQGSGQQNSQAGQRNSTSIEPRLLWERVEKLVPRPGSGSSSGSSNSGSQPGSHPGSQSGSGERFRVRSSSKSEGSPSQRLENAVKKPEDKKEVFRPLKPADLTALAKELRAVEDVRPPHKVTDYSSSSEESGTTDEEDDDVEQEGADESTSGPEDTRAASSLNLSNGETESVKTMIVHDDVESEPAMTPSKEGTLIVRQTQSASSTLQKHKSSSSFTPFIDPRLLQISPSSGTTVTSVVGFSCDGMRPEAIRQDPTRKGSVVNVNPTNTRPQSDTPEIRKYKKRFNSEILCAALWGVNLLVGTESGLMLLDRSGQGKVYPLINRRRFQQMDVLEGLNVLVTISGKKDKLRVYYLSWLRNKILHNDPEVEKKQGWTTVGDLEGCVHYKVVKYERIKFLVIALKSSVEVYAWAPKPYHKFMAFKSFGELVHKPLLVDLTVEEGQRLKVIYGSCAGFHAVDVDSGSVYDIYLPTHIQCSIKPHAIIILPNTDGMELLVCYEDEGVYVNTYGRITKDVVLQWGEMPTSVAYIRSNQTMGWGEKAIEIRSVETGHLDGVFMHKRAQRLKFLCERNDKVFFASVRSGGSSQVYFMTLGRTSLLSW
Experimental: (specific activity and concentration as required). The reaction is initiated by the addition of the Mg/ATP mix. After incubation for 40 minutes at room temperature, the reaction is stopped by the addition of phosphoric acid to a concentration of 0.5%.

[1] = system: Human hepatic stellate cell LX-2; assay: LX-2 fibrosis assay, collagen production; type: cell-based; details: LX-2 cells stimulated with 4 ng/mL TGF-b for 48 hours, Western blot
Experimental: Human hepatic stellate cell LX-2 were grown in DMEM (Invitrogen, 11960) supplied with 1% MEM Non-Essential Amino Acids (Invitrogen, 11140-050), 2% fetal bovine serum (Hyclone, SV30087.03), Penicillin (100 U/mL)-streptomycin (100 μg/mL) (Millipore, TMS-AB2-C) and 2 mM L-Glutamine (Invitrogen, 25030-001). After the cells grew in 12-well plates for 24 hours, the cell culture medium was changed to the same as above except using 0.4% fetal bovine serum. After 20 hour growth in the reduced serum medium, the cells were treated with indicated doses of compounds for 30 minutes. Subsequently, the cells were stimulated with 4 ng/mL TGF-b (R&D Systems, 240-B-002) for 48 hours. The cells were rinsed twice with DPBS before being harvested with 100 μL RIPA buffer (Sigma, R10278) supplemented with protease inhibitor cocktail (Roche, 04693132001) at 4° C. The total protein in each sample was quantified using BCA Protein Assay Kit (Pierce™, 23227) and equal amount of total protein of each sample was subject to Western blot analysis. Antibodies used were mouse anti-α-Actin (SPM332) ([…]), mouse anti-CTGF (E5) ([…]), and mouse anti-collagen α1 (3G3) (sc-293182), from Santa Cruz Biotechnologies; and mouse anti-GAPDH (6C5) (EMD Millipore, MAB374).

[2] = system: collagen type 1 alpha 1 (COL1A1) mRNA expression; assay: Collagen production assay (COL1A1 mRNA expression); type: cell-based
Experimental: HDF/TERT166 working lot cells can be thawed from liquid nitrogen and expanded using standard conditions (Medium: DMEM/Ham's F12 basal medium supplemented with 1× GlutaMax-I and 10% FBS without antibiotics; 37° C. 5% CO2). For performing the treatment, cells can be seeded at a cell density of 7500 cells/cm^2 in 12-well plates the day before the first treatment. Cells can be seeded in starvation medium (DMEM/Ham's F12 basal medium supplemented with 1× GlutaMax-I and 0.5% FBS without antibiotics). Approximately 24 hours after seeding the substances can be dissolved in DMSO (stocks: 10 mM) and diluted in starvation medium to a final concentration of 10 μM. Half of this working dilution can be supplemented with 100 pg/mL TGFbeta. For each substance, two wells can be treated with a 10 μM concentration of the substance and a 10 μM concentration supplemented with 100 pg/mL TGF-beta. In parallel, cells can be treated with 100 pg/mL TGF-beta alone. Cells in starvation medium can serve as a control. For all cells treatment can be done by performing a medium exchange. […]
RNA extraction can be performed with 200 μL Chloroform, and phase separation can be achieved by centrifugation for 15 min at 12,000 g at 4° C. […] RNA concentration can be determined spectrophotometrically with a Nanodrop instrument. […]

[3] = TNIK enzymatic assay, Table 1, read-out: IC50

Chain of TNIK (Q9UKE5 whole entry): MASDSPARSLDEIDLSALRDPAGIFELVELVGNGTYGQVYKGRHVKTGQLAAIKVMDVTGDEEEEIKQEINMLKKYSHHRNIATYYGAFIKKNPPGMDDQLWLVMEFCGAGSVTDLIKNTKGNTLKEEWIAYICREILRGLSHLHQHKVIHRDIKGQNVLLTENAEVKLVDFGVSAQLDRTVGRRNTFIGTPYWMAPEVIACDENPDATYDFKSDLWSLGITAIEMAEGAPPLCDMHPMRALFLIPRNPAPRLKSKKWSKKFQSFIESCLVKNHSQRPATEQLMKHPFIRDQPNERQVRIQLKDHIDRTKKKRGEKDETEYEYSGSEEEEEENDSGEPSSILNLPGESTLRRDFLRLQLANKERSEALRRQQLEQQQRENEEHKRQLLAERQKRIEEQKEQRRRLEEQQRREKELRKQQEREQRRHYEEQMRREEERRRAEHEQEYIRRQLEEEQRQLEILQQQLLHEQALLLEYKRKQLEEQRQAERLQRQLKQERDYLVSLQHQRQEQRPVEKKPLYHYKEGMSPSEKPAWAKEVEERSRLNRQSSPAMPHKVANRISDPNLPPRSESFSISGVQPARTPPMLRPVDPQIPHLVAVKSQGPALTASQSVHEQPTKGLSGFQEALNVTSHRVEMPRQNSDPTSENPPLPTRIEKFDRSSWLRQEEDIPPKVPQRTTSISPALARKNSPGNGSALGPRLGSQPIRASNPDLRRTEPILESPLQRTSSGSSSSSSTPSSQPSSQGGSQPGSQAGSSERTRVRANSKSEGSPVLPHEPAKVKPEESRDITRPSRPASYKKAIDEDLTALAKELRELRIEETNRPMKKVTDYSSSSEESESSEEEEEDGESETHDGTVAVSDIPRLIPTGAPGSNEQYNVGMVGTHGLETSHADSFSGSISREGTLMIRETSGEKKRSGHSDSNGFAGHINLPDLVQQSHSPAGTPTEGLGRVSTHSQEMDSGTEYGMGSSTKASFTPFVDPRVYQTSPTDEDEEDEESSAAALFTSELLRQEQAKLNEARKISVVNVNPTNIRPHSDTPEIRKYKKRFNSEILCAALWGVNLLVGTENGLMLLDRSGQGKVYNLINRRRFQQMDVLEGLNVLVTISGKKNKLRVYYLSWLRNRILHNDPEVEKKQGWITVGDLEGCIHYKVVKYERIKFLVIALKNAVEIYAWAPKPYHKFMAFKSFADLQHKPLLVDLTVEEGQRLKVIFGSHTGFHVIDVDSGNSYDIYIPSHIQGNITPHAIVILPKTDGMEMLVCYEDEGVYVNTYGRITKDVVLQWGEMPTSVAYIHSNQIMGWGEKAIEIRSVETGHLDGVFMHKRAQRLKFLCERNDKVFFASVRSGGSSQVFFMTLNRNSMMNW

Row | SMILES | IC50 (TNIK; read-out: TNIK_IC50) | IC50 (MAP4K4 (h)) | EC50 [1] | IC50 (TNIK; [3]) | EC50 ([1]; Homo sapiens, LX-2, 48 h) | collagen type 1 alpha 1 (COL1A1) mRNA expression [2] | effect of TGF-beta treatment on the COL1A1 mRNA expression ([2]; with TGF-beta treatment)
1 | CC(=O)Nc1ccc(C(=O)Nc2sc(Nc3ccccc3)nc2C(N)=O)cc1 [5-(4-acetamidobenzamido)-2-(phenylamino)-1,3-thiazole-4-carboxamide] |  |  |  |  |  | decreased | inhibited
2 | O=C(Nc1ccccc1F)c1ccc(-c2c(-c3ccc(F)nc3)ncn2C2CCCC2)o1 [Compound 93, 5-(1-cyclopentyl-4-(6-fluoropyridin-3-yl)-1H-imidazol-5-yl)-N-(2-fluorophenyl)furan-2-carboxamide] | 0.0364 µM | 0.131 µM |  | 0.036 µM | 0.754 µM |  | 
3 | O=C(Nc1ccccc1F)c1ccc(-c2c(-c3cccnc3)ncn2C2CCCC2)o1 [Compound 92, 5-(1-cyclopentyl-4-(pyridin-3-yl)-1H-imidazol-5-yl)-N-(2-fluorophenyl)furan-2-carboxamide] | 0.0932 µM | 0.112 µM |  |  | 4.28 µM |  | 
4 | O=C(Nc1ccccc1F)c1ccc(-c2c(-c3ccc(F)cc3)ncn2CC2CCNC2)o1 (stereo not shown) [Compound 82, N-(2-fluorophenyl)-5-(4-(4-fluorophenyl)-1-(pyrrolidin-3-ylmethyl)-1H-imidazol-5-yl)furan-2-carboxamide] | 0.158 µM | 3.2 µM |  | 0.158 µM | 1.52 µM |  | 

Continued, in another order:

Row | IC50 (TNIK; read-out: TNIK_IC50) | IC50 (MAP4K4 (h)) | EC50 [1] | IC50 (TNIK; [3]) | EC50 ([1]; Homo sapiens, LX-2, 48 h) | SMILES | collagen type 1 alpha 1 (COL1A1) mRNA expression [2] | effect of TGF-beta treatment on the COL1A1 mRNA expression ([2]; with TGF-beta treatment)
5 | 0.00932 µM | 0.00472 µM | 0.286 µM |  |  | O=C(Nc1ccncc1F)c1ccc(-c2c(-c3ccc(F)cc3)ncn2[C@@H]2CC[C@H](O)C2)o1 (racemic) [Compound A-63, rac-5-(4-(4-fluorophenyl)-1-((1R,3S)-3-hydroxycyclopentyl)-1H-imidazol-5-yl)-N-(3-fluoropyridin-4-yl)furan-2-carboxamide] |  | 
6 | 0.125 µM | > 1 µM |  |  | 0.401 µM | Cn1cnc(-c2ccc(F)cc2)c1-c1ccc(C(=O)Nc2ccncc2F)o1 [Compound A-49, 5-(4-(4-fluorophenyl)-1-methyl-1H-imidazol-5-yl)-N-(3-fluoropyridin-4-yl)furan-2-carboxamide] |  | 
7 | 0.457 µM | 0.532 µM | 0.999 µM |  |  | O=C(Nc1ccncc1F)c1ccc(-c2c(-c3ccc(F)cc3)ncn2[C@@H]2CCC[C@H]2O)o1 (racemic) [Compound A-60, rac-5-(4-(4-fluorophenyl)-1-((1R,2R)-2-hydroxycyclopentyl)-1H-imidazol-5-yl)-N-(3-fluoropyridin-4-yl)furan-2-carboxamide] |  | 
8 | 0.0752 µM | 0.0954 µM |  |  | 0.669 µM | Cc1cc(NC(=O)c2ccc(-c3c(-c4ccc(F)cc4)ncn3C3COCC3F)o2)c(F)cn1 (stereo not shown) [Compound A-58, N-(5-fluoro-2-methylpyridin-4-yl)-5-(4-(4-fluorophenyl)-1-(4-fluorotetrahydrofuran-3-yl)-1H-imidazol-5-yl)furan-2-carboxamide] |  | 
